According to US12668599B2, “Heterobifunctional compounds and methods of treating disease” (Halda Therapeutics OpCo, Inc., priority 2023, dated 2026):

Assays:
VCaP cells = assay: Cellular growth inhibition assay for VCaP cells (CellTiter-Glo 2.0, 72 hours); assay type: cell-based, human; details: for GI50: CellTiter-Glo 2.0
[1] = tested on: T-Rex 293 cell line SC3 cells lacking increased expression of androgen receptor protein; assay: Cellular growth inhibition, T-Rex 293 SC3 cells without doxycycline (CellTiter-Glo 2.0, 72 hours); assay type: cell-based; details: T-Rex 293 SC3 cells not exposed to doxycycline (no increased androgen receptor expression)
[2] = tested on: T-Rex 293 cell line SC3 cells having increased expression of androgen receptor protein due to exposure to doxycycline; assay: Cellular growth inhibition, T-Rex 293 SC3 cells with doxycycline-induced androgen receptor (CellTiter-Glo 2.0, 72 hours); assay type: cell-based; details: for GI50: T-Rex 293 SC3 cells with 10 ng/ml doxycycline (increased androgen receptor expression), 72 hours, CellTiter-Glo 2.0

SMILES	GI50 (VCaP cells; Homo sapiens, VCaP, 72 h) [nM]	GI50 (VCaP cells; 72 hours) [nM]	Ratio of GI50's (VCaP cells; GI50 of the top compound in the pair divided by GI50 of the lower compound)	GI50 ([1]; 72 h) [nM]	GI50 [2] [nM]	GI50 [1] [nM]	Ratio of GI50's ([2]; GI50 of the top compound in the pair divided by GI50 of the lower compound, T-Rex 293 SC3 cells with doxycycline-induced androgen receptor)
CC[C@@H]1N=C(c2ccc(C#CC3CC4(C3)CN(c3ccc(C(=O)N[C@H]5CC[C@H](Oc6ccc(C#N)c(OC)c6)CC5)nn3)C4)cc2)c2c(sc(C)c2C)-n2c(C)nnc21 [Compound I-31, N-[4-(4-cyano-3-methoxy-phenoxy)cyclohexyl]-6-[6-[2-[4-[(9S)-9-ethyl-4,5,13-trimethyl-3-thia-1,8,11,12-tetrazatricyclo[8.3.0.0^2,6]trideca-2 (6),4,7,10,12-pentaen-7-yl]phenyl]ethynyl]-2-azaspiro[3.3]heptan-2-yl]pyridazine-3-carboxamide]	< 500			< 500	< 500		
COc1cc(O[C@H]2CC[C@H](NC(=O)c3ccc(N4CCCC5(CCC(c6ccc(C7=N[C@@H](C)c8nnc(C)n8-c8sc(C)c(C)c87)cc6)CC5)C4)nn3)CC2)ccc1C#N (some centres unmarked) [Compound I-24]	< 500			1500 to 3000	< 500		
COc1cc(O[C@H]2CC[C@H](NC(=O)c3ccc(N4CCC5(CCCN(c6ccc(C7=N[C@@H](C)c8nnc(C)n8-c8sc(C)c(C)c87)cc6)C5)CC4)nn3)CC2)ccc1C#N [Compound I-81, N-((1r,4r)-4-(4-cyano-3-methoxyphenoxy)cyclohexyl)-6-(2-(4-((S)-2,3,6,9-tetramethyl-6H-thieno[3,2-f][1,2,4]triazolo[4,3-a][1,4]diazepin-4-yl)phenyl)-2,9-diazaspiro[5.5]undecan-9-yl) pyridazine-3-carboxamide]	< 500			< 500	< 500		
COc1cc(O[C@H]2CC[C@H](NC(=O)c3ccc(N4CCC5(CCC(c6ccc(C7=N[C@@H](C)c8nnc(C)n8-c8sc(C)c(C)c87)cc6)C5)C4)nn3)CC2)ccc1C#N (some centres unmarked) [Compound I-94]	< 500			< 500	< 500		
COc1cc(O[C@H]2CC[C@H](NC(=O)c3ccc(N4CCC5(CCN(c6ccc(C7=N[C@@H](C)c8nnc(C)n8-c8sc(C)c(C)c87)cc6Cl)CC5)C4)nn3)CC2)ccc1C#N [Compound I-73, 6-[8-[2-chloro-4-[(9S)-4,5,9,13-tetramethyl-3-thia-1,8,11,12-tetrazatricyclo[8.3.0.0^2,6]trideca-2 (6),4,7,10,12-pentaen-7-yl]phenyl]-2,8-diazaspiro[4.5]decan-2-yl]-N-[4-(4-cyano-3-methoxy-phenoxy)cyclohexyl]pyridazine-3-carboxamide]	< 500			< 500	< 500		
COCC[C@@H]1N=C(c2ccc(C#CC3CC4(C3)CN(c3ccc(C(=O)N[C@H]5CC[C@H](Oc6ccc(C#N)c(OC(F)(F)F)c6)CC5)nn3)C4)cc2)c2c(sc(C)c2C)-n2c(C)nnc21 [Compound I-33]		< 500			< 500	< 500	
COc1cc(O[C@H]2CC[C@H](NC(=O)c3ccc(N4C[C@H]5CN(c6ccc(C7=N[C@@H](C)c8nnc(C)n8-c8sc(C)c(C)c87)cc6)C[C@H]5C4)nn3)CC2)ccc1C#N [Compound I-47]	< 500			< 500	< 500		
COCC[C@@H]1N=C(c2ccc(C3CCC4(CC3)CCN(c3ccc(C(=O)NC5CCC(Oc6ccc(C#N)c(OC(F)(F)F)c6)CC5)nn3)C4)cc2)c2c(sc(C)c2C)-n2c(C)nnc21 (stereo partly drawn) [Compound I-4, N-[4-[4-cyano-3-(trifluoromethoxy)phenoxy]cyclohexyl]-6-[8-[4-[(9S)-9-(2-methoxyethyl)-4,5,13-trimethyl-3-thia-1,8,11,12-tetrazatricyclo[8.3.0.0^2,6]trideca-2 (6),4,7,10,12-pentaen-7-yl]phenyl]-2-azaspiro[4.5]decan-2-yl]pyridazine-3-carboxamide]	< 500			1500 to 3000	< 500		
COc1cc(O[C@H]2CC[C@H](NC(=O)c3ccc(N4CCC5(CCC(c6ccc(C7=N[C@@H](C)c8nnc(C)n8-c8sc(C)c(C)c87)cc6)C5)CC4)nn3)CC2)ccc1C#N (some centres unmarked) [Compound I-22]	500 to 1500			< 500	< 500		
COc1cc(O[C@H]2CC[C@H](NC(=O)c3ccc(N4CCC5(CCC(c6ccc(C7=N[C@@H](C)c8nnc(C)n8-c8sc(C)c(C)c87)c(F)c6)CC5)C4)nn3)CC2)ccc1C#N (some centres unmarked) [Compound I-59]	< 500			< 500	< 500		

Now from value to compound, other results behind:

GI50 (VCaP cells; Homo sapiens, VCaP, 72 h) [nM]	GI50 (VCaP cells; 72 hours) [nM]	Ratio of GI50's (VCaP cells; GI50 of the top compound in the pair divided by GI50 of the lower compound)	SMILES	GI50 ([1]; 72 h) [nM]	GI50 [2] [nM]	GI50 [1] [nM]	Ratio of GI50's ([2]; GI50 of the top compound in the pair divided by GI50 of the lower compound, T-Rex 293 SC3 cells with doxycycline-induced androgen receptor)
	< 500		COc1cc(O[C@H]2CC[C@H](NC(=O)c3ccc(N4CCC5(CCN(c6ccc(C7=NC(Cc8ncco8)c8nnc(C)n8-c8sc(C)c(C)c87)c(C(F)(F)F)c6)CC5)C4)nn3)CC2)ccc1C#N (some centres unmarked) [Compound I-137]		< 500	> 3000	
	< 500		COc1cc(O[C@H]2CC[C@H](NC(=O)c3ccc(N4CCC5(CCN(c6ccc(C7=NC(Cc8ncco8)c8nnc(C)n8-c8sc(C)c(C)c87)cc6F)CC5)C4)nn3)CC2)ccc1C#N (single isomer, unassigned) [Compound I-135]		< 500	< 500	
< 500			COc1cc(O[C@H]2CC[C@H](NC(=O)c3ccc(N4C[C@]5(F)CN(c6ccc(C7=N[C@@H](Cc8ncco8)c8nnc(C)n8-c8sc(C)c(C)c87)cc6)C[C@]5(F)C4)nn3)CC2)ccc1C#N [Compound I-119]	< 500	< 500		
< 500			COc1cc(O[C@H]2CC[C@H](NC(=O)c3ccc(N4CC5(CCC5)C5(CCN(c6ccc(C7=N[C@@H](C)c8nnc(C)n8-c8sc(C)c(C)c87)cc6)CC5)C4)nn3)CC2)ccc1C#N [Compound I-114]	< 500	< 500		
< 500			COc1cc(O[C@H]2CC[C@H](NC(=O)c3ccc(N4CC5(CC(C#Cc6ccc(C7=NC(Cc8ncco8)c8nnc(C)n8-c8sc(C)c(C)c87)cc6F)C5)C4)nn3)CC2)ccc1C#N (single isomer, unassigned) [Compound I-123]		< 500	> 3000	
< 500			COc1cc(O[C@H]2CC[C@H](NC(=O)c3ccc(N4CCC5(CCC(c6ccc(C7=N[C@@H](Cc8ncco8)c8nnc(C)n8-c8sc(C)c(C)c87)cc6)CC5)C4)nn3)CC2)ccc1C#N (stereo partly drawn) [Compound I-100, N-((1r,4r)-4-(4-cyano-3-methoxyphenoxy)cyclohexyl)-6-(8-(4-((S)-2,3,9-trimethyl-6-(oxazol-2-ylmethyl)-6H-thieno[3,2-f][1,2,4]triazolo[4,3-a][1,4]diazepin-4-yl)phenyl)-2-azaspiro[4.5]decan-2-yl) pyridazine-3-carboxamide]	< 500	< 500		
< 500		1	COc1cc(O[C@H]2CC[C@H](NC(=O)c3ccc(N4CC5(CC(C#Cc6ccc(C7=N[C@@H](Cc8ncco8)c8nnc(C)n8-c8sc(C)c(C)c87)cc6)C5)C4)nn3)CC2)ccc1C#N [Compound I-124, N-[(1r,4r)-4-(4-cyano-3-methoxy-phenoxy)cyclohexyl]-6-[6-[2-[4-[(9S)-4,5,13-trimethyl-9-(oxazol-2-ylmethyl)-3-thia-1,8,11,12-tetrazatricyclo[8.3.0.0^2,6]trideca-2 (6),4,7,10,12-pentaen-7-yl]phenyl]ethynyl]-2-azaspiro[3.3]heptan-2-yl]pyridazine-3-carboxamide]	< 500	< 500		1
